{"source": "patent US20170007562A1", "about": "“Use of Guanidinoacetic Acid and/or Creatine for Increasing the Hatch Rate” (EVONIK DEGUSSA GMBH, priority 2014, published 2017)", "key": {"eggs": {"test_system": "eggs", "settings": "prior art, Halle et al, Landbauforschung Völkenrode (2006); cited from earlier work"}, "hatched quail chicks": {"test_system": "hatched quail chicks", "assay": "Effect of GAA feeding of the parent animals on the properties of the hatched chicks", "assay_type": "in vivo, quails", "settings": "for Feed conversion / Weight gain / total feed intake, days 1–35: GAA-free ration, days 1 to 35; for Weight on day 1: chicks on GAA-free ration", "source_text": "Finally, the effect of GAA feeding of the parent animals on the properties of the hatched chicks was also studied. To this end, in each case 80 chicks which had been obtained subsequently to feeding the parent animals with the respective ratios were subjected to a two-step feeding programme. Here, the chicks were subjected to a GAA-free ration. Here, all chicks were given the same feed. The feeding stuff of the chicks for the first three weeks and for weeks four to five can be seen from Table 1. The data determined were chick weight on the day of hatching, chick performance (feed intake, weight increase and feed conversion) and creatine content in the muscle tissue of the freshly hatched chicks."}, "[1]": {"test_system": "parent broilers (Cobb 500)", "assay": "Effect of guanidinoacetic acid on egg production, fertility and hatching rate of hatchery eggs of parent broilers", "assay_type": "in vivo", "settings": "week 50 to 60", "source_text": "120 parent broilers (Cobb 500) were randomly assigned to 5 different 10-week feeding measures from week 50 to week 60 of their lives. In each case 6 cages, each of which contained a total of 4 parent hens were subjected to each feeding measure. The basic feed employed was a mixture consisting essentially of maize meal and soybean meal (Table 5). […] In this context, in each case the inert constituents of the basic feed were substituted to some extent by the added guanidinoacetic acid. Guanidinoacetic acid was employed in the form of the commercial product CreAMINO® (96% GAA, Evonik Industries, Germany). The parent animals were given the feed meal as per instructions of the Cobb Breeder Management Guide. In week 60 of their lives, the hens were twice artificially inseminated, the second insemination taking place 4 days after the first one. The semen used for the insemination was obtained from cockerels which had not been fed GAA. The semen was obtained by using abdominal massage. The semen obtained was collected and the sperm cell concentration was determined in order to ensure that all hens were inseminated with the same number and the same volume of sperm cells. After carrying out the insemination, the laid eggs were collected on 10 successive days. The eggs obtained were finally incubated under identical conditions, and the egg production rate, fertility and hatching rate of the fertilized eggs were subsequently determined."}, "[2]": {"test_system": "parent quails / quail eggs", "assay": "Effect of guanidinoacetic acid in parent feed on total fertility, hatching rate and embryo mortality of quail eggs", "assay_type": "in vivo", "settings": "for Total fertility: eggs of quails aged 29 weeks; for Hatching rate: hatched quails to incubated eggs", "protocol": "240 parent quails aged 25 weeks were randomly assigned to 5 different rations. Each ration had in each case 8 cages assigned to it, each of which contained a total of 6 birds (4 females, 2 males). Each of the cages was exposed to 17 hours light (natural and artificial), followed by 7 hours dark.\nThe basic feed employed was a mixture which consisted essentially of maize meal and extracted soybean meal (see table 1). Guanidinoacetic acid (GAA) was added to the basic feed in 4 different amounts (0.06; 0.12; 0.18; 0.24% by weight) giving in total 5 different feed mixtures—with the basic feed without guanidinoacetic acid as reference. The inert constituents of the basic feed were in each case partially substituted by the added guanidinoacetic acid. Guanidinoacetic acid was employed in the form of the commercial product CreAMINO® (96% GAA, Evonik Industries, Germany). During the experiment, the feed was administered ad lib in the form of a meal. Furthermore, the birds were also supplied with sufficient water.\nWhen the quails had reached an age of 29 weeks, the eggs laid were collected on seven successive days and stored for six days in a room at a temperature of 20° C. Thereafter, in each case 196 eggs per ration were incubated in an automatic hatcher. After incubation for 15 days in the hatcher, the eggs were transferred into a hatching room with a temperature of 37° C. and relative atmospheric humidity of 65%. After two days in the hatching room, the hatching rate was determined as the ratio of hatched quails to the number of incubated eggs. Equally, the total fertility was determined as the ratio of fertilized eggs to the total number of incubated eggs. Furthermore, the hatching rate of fertilized eggs was determined as the ratio of hatched quails to the number of fertilized eggs. Furthermore, the embryo mortality, too, was determined. Finally, the guanidinoacetic acid, creatine and creatinine contents in the obtained eggs were determined."}, "[3]": {"settings": "chicks of parents fed 0.06% by weight GAA"}, "[4]": {"settings": "chicks of parents fed 0.12% by weight GAA"}, "[5]": {"settings": "chicks of parents fed 0.18% by weight GAA"}, "[6]": {"settings": "chicks of parents fed 0.24% by weight GAA"}, "[7]": {"settings": "0.04% by weight guanidinoacetic acid in feed"}, "[8]": {"settings": "0.08% by weight guanidinoacetic acid in feed"}, "[9]": {"settings": "0.12% by weight guanidinoacetic acid in feed"}, "[10]": {"settings": "0.16% by weight guanidinoacetic acid in feed"}, "[11]": {"settings": "0.06% by weight GAA in parent feed"}, "[12]": {"settings": "0.06% by weight GAA in parent feed, quails"}, "[13]": {"settings": "0.12% by weight GAA in parent feed"}, "[14]": {"settings": "0.12% by weight GAA in parent feed, quails"}, "[15]": {"settings": "0.18% by weight GAA in parent feed"}, "[16]": {"settings": "0.18% by weight GAA in parent feed, quails"}, "[17]": {"settings": "0.24% by weight GAA in parent feed"}, "[18]": {"settings": "0.24% by weight GAA in parent feed, quails"}, "[19]": {"settings": "square regression analysis, quails"}}}
{"smiles": "CN(CC(=O)O)C(=N)N", "note": "[creatine]", "values": [{"measurement": "effect on the hatching rate", "setting": "eggs", "result": "no effect"}]}
{"smiles": "N=C(N)NCC(=O)O", "note": "[GAA, Guanidinoacetic acid]", "values": [{"measurement": "Feed conversion", "setting": "hatched quail chicks; [3]", "result": "3.248 ± 0.063", "unit": "g/g"}, {"measurement": "Weight gain", "setting": "hatched quail chicks; [3]", "result": "230.74 ± 7.6", "unit": "g"}, {"measurement": "total feed intake, days 1–35", "setting": "hatched quail chicks; [3]", "result": "748 ± 11.1", "unit": "g"}, {"measurement": "Weight on day 1", "setting": "hatched quail chicks; [3]", "result": "9.60 ± 0.16", "unit": "g"}, {"measurement": "Feed conversion", "setting": "hatched quail chicks; [4]", "result": "3.414 ± 0.048", "unit": "g/g"}, {"measurement": "Weight gain", "setting": "hatched quail chicks; [4]", "result": "224.98 ± 2.9", "unit": "g"}, {"measurement": "total feed intake, days 1–35", "setting": "hatched quail chicks; [4]", "result": "768 ± 11.1", "unit": "g"}, {"measurement": "Weight on day 1", "setting": "hatched quail chicks; [4]", "result": "9.74 ± 0.31", "unit": "g"}, {"measurement": "Feed conversion", "setting": "hatched quail chicks; [5]", "result": "3.305 ± 0.033", "unit": "g/g"}, {"measurement": "Weight gain", "setting": "hatched quail chicks; [5]", "result": "217.22 ± 0.6", "unit": "g"}, {"measurement": "total feed intake, days 1–35", "setting": "hatched quail chicks; [5]", "result": "718 ± 8.95", "unit": "g"}, {"measurement": "Weight on day 1", "setting": "hatched quail chicks; [5]", "result": "9.65 ± 0.16", "unit": "g"}, {"measurement": "Feed conversion", "setting": "hatched quail chicks; [6]", "result": "3.455 ± 0.090", "unit": "g/g"}, {"measurement": "Weight gain", "setting": "hatched quail chicks; [6]", "result": "222.86 ± 1.9", "unit": "g"}, {"measurement": "total feed intake, days 1–35", "setting": "hatched quail chicks; [6]", "result": "770 ± 26.1", "unit": "g"}, {"measurement": "Weight on day 1", "setting": "hatched quail chicks; [6]", "result": "9.41 ± 0.17", "unit": "g"}, {"measurement": "Creatine in the muscle", "setting": "hatched quail chicks; freshly hatched chicks of parents fed 0.06% by weight GAA", "result": "0.541 ± 0.026", "unit": "mg/g"}, {"measurement": "Creatine in the muscle", "setting": "hatched quail chicks; freshly hatched chicks of parents fed 0.12% by weight GAA", "result": "0.489 ± 0.058", "unit": "mg/g"}, {"measurement": "Creatine in the muscle", "setting": "hatched quail chicks; freshly hatched chicks of parents fed 0.18% by weight GAA", "result": "0.481 ± 0.040", "unit": "mg/g"}, {"measurement": "Creatine in the muscle", "setting": "hatched quail chicks; freshly hatched chicks of parents fed 0.24% by weight GAA", "result": "0.433 ± 0.033", "unit": "mg/g"}, {"measurement": "Egg production", "setting": "[1]; [7]", "result": 50.42, "unit": "%"}, {"measurement": "Fertility", "setting": "[1]; [7]", "result": 85.15, "unit": "%"}, {"measurement": "Hatching rate (of fertilized eggs)", "setting": "[1]; [7]", "result": 65.59, "unit": "%"}, {"measurement": "Egg production", "setting": "[1]; [8]", "result": 53.18, "unit": "%"}, {"measurement": "Fertility", "setting": "[1]; [8]", "result": 96.51, "unit": "%"}, {"measurement": "Hatching rate (of fertilized eggs)", "setting": "[1]; [8]", "result": 83.76, "unit": "%"}, {"measurement": "Egg production", "setting": "[1]; [9]", "result": 53.44, "unit": "%"}, {"measurement": "Fertility", "setting": "[1]; [9]", "result": 96.43, "unit": "%"}, {"measurement": "Hatching rate (of fertilized eggs)", "setting": "[1]; [9]", "result": 83.95, "unit": "%"}, {"measurement": "Egg production", "setting": "[1]; [10]", "result": 50.50, "unit": "%"}, {"measurement": "Fertility", "setting": "[1]; [10]", "result": 81.76, "unit": "%"}, {"measurement": "Hatching rate (of fertilized eggs)", "setting": "[1]; [10]", "result": 65.04, "unit": "%"}, {"measurement": "Total fertility", "setting": "[2]; [11]", "result": "95.27 ± 1.81", "unit": "%"}, {"measurement": "Hatching rate", "setting": "[2]; [11]", "result": "76.52 ± 3.78", "unit": "%"}, {"measurement": "Hatching rate of the fertilized eggs", "setting": "[2]; [12]", "result": "80.19 ± 3.07", "unit": "%"}, {"measurement": "Mortality (embryo mortality)", "setting": "[2]; [12]", "result": "18.75 ± 2.76", "unit": "%"}, {"measurement": "Total fertility", "setting": "[2]; [13]", "result": "97.05 ± 1.51", "unit": "%"}, {"measurement": "Hatching rate", "setting": "[2]; [13]", "result": "90.69 ± 2.10", "unit": "%"}, {"measurement": "Hatching rate of the fertilized eggs", "setting": "[2]; [14]", "result": "93.49 ± 2.04", "unit": "%"}, {"measurement": "Mortality (embryo mortality)", "setting": "[2]; [14]", "result": "6.40 ± 1.96", "unit": "%"}, {"measurement": "Total fertility", "setting": "[2]; [15]", "result": "98.32 ± 0.82", "unit": "%"}, {"measurement": "Hatching rate", "setting": "[2]; [15]", "result": "87.39 ± 3.20", "unit": "%"}, {"measurement": "Hatching rate of the fertilized eggs", "setting": "[2]; [16]", "result": "88.94 ± 3.33", "unit": "%"}, {"measurement": "Mortality (embryo mortality)", "setting": "[2]; [16]", "result": "10.92 ± 3.32", "unit": "%"}, {"measurement": "Total fertility", "setting": "[2]; [17]", "result": "94.02 ± 1.29", "unit": "%"}, {"measurement": "Hatching rate", "setting": "[2]; [17]", "result": "81.38 ± 2.50", "unit": "%"}, {"measurement": "Hatching rate of the fertilized eggs", "setting": "[2]; [18]", "result": "86.51 ± 2.03", "unit": "%"}, {"measurement": "Mortality (embryo mortality)", "setting": "[2]; [18]", "result": "12.64 ± 1.89", "unit": "%"}, {"measurement": "dosage from which the observed effects were significantly increased", "setting": "[2]; quails", "result": "above 0.1 % by weight"}, {"measurement": "optimum range of feeding the parent animals", "setting": "[2]; quails", "result": "0.12-0.18 % by weight"}, {"measurement": "optimum value for GAA supplementation in terms of the hatching rate", "setting": "[2]; [19]", "result": 0.15, "unit": "% by weight"}, {"measurement": "optimum value for GAA supplementation in terms of the hatching rate of fertilized eggs", "setting": "[2]; [19]", "result": 0.16, "unit": "% by weight"}, {"measurement": "optimum value for GAA supplementation in terms of the mortality rate", "setting": "[2]; [19]", "result": 0.16, "unit": "% by weight"}, {"measurement": "optimum value for GAA supplementation in terms of the total reproduction", "setting": "[2]; [19]", "result": 0.14, "unit": "% by weight"}]}
